# Measurements taken from patent US6914045B2, “Glycopeptide antibiotics” (Wyeth Holdings Corporation, priority 2001, dated 2005).
# Assays:
# Assay in all cases: in vitro antibacterial evaluation, MIC by broth dilution
# Type in all cases: cell-based
# Escherichia coli = conditions: 18 hours at 35° C., strain ATCC 25922
# Procedure, shortened: (§1)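 Read-out: the lowest concentration at which the test strain fails to grow. Serial dilutions (64-0.06 μg/mL) in Muller-Hinton II […], 5×10^5 CFU/mL inoculum, NCCLS M7-A2 procedure.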
# Staphylococcus sp. = conditions: broth dilution, 18 hours at 35° C.
# Procedure, shortened: as §1
# Streptococcus sp. = conditions: broth dilution, 18 hours at 35° C.
# Procedure, shortened: as §1
# Enterococcus sp. = conditions: broth dilution, 18 hours at 35° C.
# Procedure, shortened: as §1
smiles,measurement,setting,value
"CC(C)CC1OCC2OC(OC3C(CO)OC(Oc4ccc(CC5NC(=O)C(C(C)c6ccccc6)NC(=O)CNC(=O)C(CO)NC(=O)C(C(O)C6CNC(=N)N6C6OC(CO)C(O)C(O)C6O)NC(=O)C(C(O)C6CNC(=N)N6)NC5=O)cc4)C(O)C3O)C(O)C(O)C2O1 (stereo not drawn) [Example 107, Cyclo[glycyl-β-methylphenylalanyl-O-[4-O-[4,6-O-(3-methylbutylidene)hexopyranosyl]-hexopyranosyl]tyrosyl-3-(2-iminoimidazolidin-4-yl)seryl-3-(3-hexopyranosyl-2-iminoimidazolidin-4-yl)serylseryl]]",MIC Escherichia coli (ATCC 25922),Escherichia coli,64 µg/mL
same,MIC Coagulase Negative Staphylococcus (GC 4547),Staphylococcus sp.,1 µg/mL
same,MIC Coagulase Negative Staphylococcus (GC 4548),Staphylococcus sp.,1 µg/mL
same,MIC Coagulase Negative Staphylococcus (GC 4549),Staphylococcus sp.,1 µg/mL
same,MIC Coagulase Negative Staphylococcus (GC 4551),Staphylococcus sp.,1 µg/mL
same,MIC Coagulase Negative Staphylococcus (ID-3941),Staphylococcus sp.,1 µg/mL
same,MIC Staphylococcus aureus (ATCC 29213),Staphylococcus sp.,1 µg/mL
same,MIC Staphylococcus aureus (GC 1131),Staphylococcus sp.,2 µg/mL
same,MIC Staphylococcus aureus (GC 4541),Staphylococcus sp.,2 µg/mL
same,MIC Staphylococcus aureus (GC 4542),Staphylococcus sp.,1 µg/mL
same,MIC Staphylococcus aureus (GC 4544),Staphylococcus sp.,2 µg/mL
same,MIC Staphylococcus aureus (GC 4545),Staphylococcus sp.,1 µg/mL
same,MIC Staphylococcus aureus-SMITH (GC 4543),Staphylococcus sp.,1 µg/mL
same,MIC Staphylococcus haemolyticus (GC 4546),Staphylococcus sp.,1 µg/mL
same,MIC Staphylococcus aureus (GC 1131),"Staphylococcus sp.; inoculum 5×10^5 CFU/mL, strain GC 1131",2 µg/mL
same,MIC Staphylococcus aureus (ATCC 29213),Staphylococcus sp.; strain ATCC 29213,1 µg/mL
same,MIC Staphylococcus aureus (GC 4541),Staphylococcus sp.; strain GC 4541,2 µg/mL
same,MIC Staphylococcus aureus (GC 4542),Staphylococcus sp.; strain GC 4542,1 µg/mL
same,MIC Staphylococcus aureus (GC 4544),Staphylococcus sp.; strain GC 4544,2 µg/mL
same,MIC Staphylococcus aureus (GC 4545),Staphylococcus sp.; strain GC 4545,1 µg/mL
same,MIC Staphylococcus haemolyticus (GC 4546),Staphylococcus sp.; strain GC 4546,1 µg/mL
same,MIC Coagulase Negative Staphylococcus (GC 4547),Staphylococcus sp.; strain GC 4547,1 µg/mL
same,MIC Coagulase Negative Staphylococcus (GC 4548),Staphylococcus sp.; strain GC 4548,1 µg/mL
same,MIC Coagulase Negative Staphylococcus (GC 4549),Staphylococcus sp.; strain GC 4549,1 µg/mL
same,MIC Coagulase Negative Staphylococcus (GC 4551),Staphylococcus sp.; strain GC 4551,1 µg/mL
same,MIC Coagulase Negative Staphylococcus (ID-3941),Staphylococcus sp.; strain ID-3941,1 µg/mL
same,MIC Staphylococcus aureus-SMITH (GC 4543),Staphylococcus sp.; strain SMITH GC 4543,1 µg/mL
same,MIC Streptococcus agalactiae (GC 4564),Streptococcus sp.; Streptococcus agalactiae (GC 4564),0.25 µg/mL
same,MIC Streptococcus pneumoniae (GC 4565),Streptococcus sp.; Streptococcus pneumoniae (GC 4565),<0.12 µg/mL
same,MIC Streptococcus pyogenes (ID-3187),Streptococcus sp.; Streptococcus pyogenes (ID-3187),0.25 µg/mL
same,MIC Streptococcus agalactiae (GC 4564),Streptococcus sp.; strain GC 4564,0.25 µg/mL
same,MIC Streptococcus pneumoniae (GC 4565),Streptococcus sp.; strain GC 4565,<0.12 µg/mL
same,MIC Streptococcus pyogenes (ID-3187),Streptococcus sp.; strain ID-3187,0.25 µg/mL
same,MIC Enterococcus avium (GC 4558),Enterococcus sp.; Enterococcus avium (GC 4558),8 µg/mL
same,MIC Enterococcus faecalis (ATCC 29212),Enterococcus sp.; Enterococcus faecalis (ATCC 29212),4 µg/mL
same,MIC Enterococcus faecalis (GC 2242),Enterococcus sp.; Enterococcus faecalis (GC 2242),4 µg/mL
same,MIC Enterococcus faecalis (GC 4552),Enterococcus sp.; Enterococcus faecalis (GC 4552),4 µg/mL
same,MIC Enterococcus faecalis (GC 4553),Enterococcus sp.; Enterococcus faecalis (GC 4553),8 µg/mL
same,MIC Enterococcus faecalis (GC 4554),Enterococcus sp.; Enterococcus faecalis (GC 4554),4 µg/mL
same,MIC Enterococcus faecium (GC 2243),Enterococcus sp.; Enterococcus faecium (GC 2243),8 µg/mL
same,MIC Enterococcus faecium (GC 4556),Enterococcus sp.; Enterococcus faecium (GC 4556),4 µg/mL
same,MIC Enterococcus faecium (GC 4557),Enterococcus sp.; Enterococcus faecium (GC 4557),2 µg/mL
same,MIC Enterococcus faecalis (ATCC 29212),Enterococcus sp.; strain ATCC 29212,4 µg/mL
same,MIC Enterococcus faecalis (GC 2242),Enterococcus sp.; strain GC 2242,4 µg/mL
same,MIC Enterococcus faecium (GC 2243),Enterococcus sp.; strain GC 2243,8 µg/mL
same,MIC Enterococcus faecalis (GC 4552),Enterococcus sp.; strain GC 4552,4 µg/mL
same,MIC Enterococcus faecalis (GC 4553),Enterococcus sp.; strain GC 4553,8 µg/mL
same,MIC Enterococcus faecalis (GC 4554),Enterococcus sp.; strain GC 4554,4 µg/mL
same,MIC Enterococcus faecium (GC 4556),Enterococcus sp.; strain GC 4556,4 µg/mL
same,MIC Enterococcus faecium (GC 4557),Enterococcus sp.; strain GC 4557,2 µg/mL
same,MIC Enterococcus avium (GC 4558),Enterococcus sp.; strain GC 4558,8 µg/mL
